This is an account of results in patent US20200172927A1, “REP[…] […] FOR TREATMENT OF NEURODEGENERATION” (The Trustees of Columbia University in the City of New York, priority 2017, published 2020).

SMILES strings stand for the structures.

This assay concerns HIF2a and GLUT1. Put plainly: Immunoblot of retinas from B6 mice orally fed VH298 for 3 days. The assay is classed as in vivo. The following applies: 6-week old B6 mice, oral, VH298 in oil 10, 20, or 50 mg/kg, retinas collected 4 hours after last feeding, vs oil only control. The method, then:
6-week old B6 mice were orally fed for 3 days with VH298 in oil (10, 20, or 50 mg/kg) or oil only for the control group. Each group contained 3 mice. 4 hours after the last feeding, mice retinas were collected and processed immediately for immunoblot. Protein levels of HIF2a, and Glut1 were shown. B-actin was used as loading control.
6-week old B6 mice were orally fed for 3 days with VH298 in oil (10, 20, or 50 mg/kg) or oil only for the control group. Each group contained 3 mice. 4 hours after the last feeding, mice retinas were collected and processed immediately for immunoblot.

Turning to `Cc1ncsc1-c1ccc(CNC(=O)[C@@H]2C[C@@H](O)CN2C(=O)[C@@H](NC(=O)C2(C#N)CC2)C(C)(C)C)cc1` [VH298, (2S,4R)-1-((S)-2-(1-cyanocyclopropanecarboxamido)-3,3-dimethylbutanoyl)-4-hydroxy-N-(4-(4-methylthiazol-5-yl)benzyl)pyrrolidine-2-carboxamide], the “Protein level of GLUT1 in retina (immunoblot)” value is recorded as “dose-dependent increase” and the “Protein level of HIF2a in retina (immunoblot)” value is recorded as “dose-dependent increase”.
